PubChem BioAssay (NCI)
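Compound exposure: 48 hours, 5 concentrations, 96-well plates. At the TGI there is no net growth.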

Legend:
Test in all cases: NCI-60 cell line screen, 48 h
OVCAR-4 ovarian = test system: OVCAR-4 ovarian
HOP-62 NSCLC = test system: HOP-62 NSCLC
SF-268 CNS = test system: SF-268 CNS
SF-539 CNS = test system: SF-539 CNS
786-0 renal = test system: 786-0 renal
CCRF-CEM leukemia = test system: CCRF-CEM leukemia
TK-10 renal = test system: TK-10 renal
KM12 colon = test system: KM12 colon
SNB-75 CNS = test system: SNB-75 CNS
HCC-2998 colon = test system: HCC-2998 colon
SK-MEL-5 melanoma = test system: SK-MEL-5 melanoma
MALME-3M melanoma = test system: MALME-3M melanoma
NCI-H522 lung = test system: NCI-H522 lung
HCT-116 colon = test system: HCT-116 colon
MDA-MB-231 breast = test system: MDA-MB-231 breast
PC-3 prostate = test system: PC-3 prostate
MDA-MB-435 = test system: MDA-MB-435
NCI/ADR-RES ovarian = test system: NCI/ADR-RES ovarian
MCF7 breast = test system: MCF7 breast
BT-549 breast = test system: BT-549 breast

SMILES | TGI (OVCAR-4 ovarian) [µM] | TGI (HOP-62 NSCLC) [µM] | TGI (SF-268 CNS) [µM] | TGI (SF-539 CNS) [µM] | TGI (786-0 renal) [µM] | TGI (CCRF-CEM leukemia) [µM] | TGI (TK-10 renal) [µM] | TGI (KM12 colon) [µM] | TGI (SNB-75 CNS) [µM] | TGI (HCC-2998 colon) [µM] | TGI (SK-MEL-5 melanoma) [µM] | TGI (MALME-3M melanoma) [µM] | TGI (NCI-H522 lung) [µM] | TGI (HCT-116 colon) [µM] | TGI (MDA-MB-231 breast) [µM] | TGI (PC-3 prostate) [µM] | TGI (MDA-MB-435) [µM] | TGI (NCI/ADR-RES ovarian) [µM] | TGI (MCF7 breast) [µM] | TGI (BT-549 breast) [µM]
c1cc2nnsc2s1 | > 100 | > 100 | > 100 | > 100 | > 100 | > 100 | > 100 | > 100 | > 100 | > 100 | > 100 | > 100 | > 100 |  |  |  |  |  |  | 
CNC1c2ccccc2C(=O)c2cc3c(cc21)OCCOCCOCCOCCO3 (configuration not stated) | > 100 | > 100 | > 100 | > 100 | > 100 | 46.1 | > 100 | > 100 | > 100 | > 100 | > 100 |  | > 100 | > 100 | > 100 | > 100 | > 100 | > 100 | > 100 | 
CC(=O)OCCOCNC(=S)N/N=C/c1cc([N+](=O)[O-])ccc1O | > 100 | > 100 | > 100 | > 100 | > 100 | > 100 | > 100 | > 100 | > 100 | > 100 | > 100 | > 100 | > 100 | > 100 |  |  |  |  |  | 
O=c1[nH]c(=O)n(C2CC(O)C(CO)O2)cc1C(F)(C(F)(F)F)C(F)(F)F (configuration not stated) | > 100 | > 100 | > 100 | > 100 | > 100 | > 100 | > 100 | > 100 | > 100 |  | > 100 | > 100 | > 100 |  |  |  |  |  |  | 
CC12CCC(=O)N1c1cncnc1N2 (configuration not stated) | > 10 |  | > 10 | > 10 | > 10 | > 10 | > 10 | > 10 | > 10 | > 10 |  | > 10 | > 10 | > 10 |  | > 10 | > 10 | > 10 | > 10 | > 10
CNC(=O)C1(C#N)C(c2ccccc2)C(C#N)(C(=O)NC)C1c1ccccc1 (configuration not stated) | > 100 | > 100 | > 100 | > 100 | > 100 | > 100 | > 100 | > 100 | > 100 | > 100 | > 100 |  | > 100 | > 100 |  | > 100 | > 100 | > 100 | > 100 | 
CN/C=C(\C(=O)c1ccc(OC)c(OC)c1)c1ccc(OC)cc1 | 80.1 | 94 | 72.9 | 14.1 | 23.9 | 23.8 | 37.9 | 29.5 | > 100 |  | 35 |  | 36 | 18.1 |  |  |  |  |  | 
N#CC(C#N)=C/C=C/c1c(Cl)cccc1Cl | 3.49 | 8.87 | 4.07 | 2.96 | 3.35 | > 10 | 6.24 | 3.02 | > 10 | 3.34 | 3.28 | 3.15 | 3.06 | 2.62 | 3.52 | 3.68 | 4.59 | 4.98 | 7.04 | 
O=C(Cc1ccccc1)NN1C(=O)/C(=C\c2cccc([N+](=O)[O-])c2)SC1=Nc1ccccc1 | > 100 | > 100 | > 100 | > 100 | > 100 |  | > 100 | > 100 | > 100 | > 100 | > 100 |  |  | > 100 | > 100 |  | > 100 | > 100 | > 100 | 
CCOC(=O)Cn1c2ccc(Br)cc2c2nc3ccccc3nc21 |  | > 100 | > 100 |  | > 100 | > 100 | > 100 | > 100 | > 100 |  | > 100 |  |  | > 100 | > 100 | > 100 | > 100 | > 100 |  | 
CC(=O)Nc1ccc(-c2nnc(SCC(=O)Nc3cccc(Cl)c3)o2)cc1 | 42.3 | 36.2 | 37.8 | 34.8 | 23.7 | > 100 | 33.9 | 30.8 | 71.9 | 37.6 | 29.1 | 26.8 | 23.5 | 25.5 |  |  |  |  |  | 
COc1ccc(N2C(=O)C3c4[nH]c5ccccc5c4C4CC(C)(C)CC(C)(C)C4C3C2=O)cc1 (configuration not stated) | 26.2 | 31.3 | 54 | 27.2 | 28.3 | > 100 |  |  | 34.5 | > 100 | 41.3 | 36.3 | 38.1 | 30.4 |  |  |  |  |  | 
C[C@@H]1C(=O)O[C@H]1[C@H](O)CO | > 100 | > 100 |  |  | > 100 | > 100 | > 100 | > 100 | > 100 | > 100 | > 100 |  |  | > 100 |  | > 100 | > 100 | > 100 | > 100 | > 100
Cc1c(/C=N/NC(=S)Nc2ccc(Cl)cc2)c(=O)n(-c2ccccc2)n1C | > 57.1 | 27.5 | 39 | 28.2 | 31.2 | > 100 | > 58.3 | 99.4 | 35.8 | > 100 | > 31.6 | > 60.3 | 22.4 | > 62.5 | 1.99 | > 100 | > 100 | 48.9 | > 54.9 | 
Cc1cc(=O)oc2c(CNC(CO)C(=O)O)c(O)ccc12 (configuration not stated) | > 100 | > 100 | > 100 | > 100 | > 100 | > 100 | > 100 | > 100 | > 100 |  | > 100 | > 100 | > 100 | > 100 | > 100 | > 100 | > 100 | > 100 | > 100 | 
COC1(C)C(=O)N2C1N(C(=O)OC(C)(C)C)CC2(C)C (configuration not stated) | > 100 | > 100 | > 100 | > 100 | > 100 | > 100 | > 100 | > 100 | > 100 | > 100 | > 100 | > 100 | > 100 | > 100 |  |  |  |  |  | 
CCOc1cn(C2OC(CO)C(O)C2O)c(=O)[nH]c1=O (configuration not stated) |  | > 100 | > 100 |  | > 100 | > 100 | > 100 | > 100 | > 100 | > 100 | > 100 | > 100 | > 100 | > 100 |  |  |  |  |  | 
CCOC(=O)C(NC(C)=O)(Nc1ccc(S(N)(=O)=O)cc1)C(F)(F)F (configuration not stated) | > 100 | > 100 | > 100 | > 100 | > 100 | > 100 | > 100 | > 100 | > 100 | > 100 | > 100 | > 100 | > 100 | > 100 | > 100 | > 100 | > 100 | > 100 | > 100 | 
COC(=O)[C@@]1(C)C(=O)CC[C@@H]1C=O | > 100 | > 100 | > 100 | > 100 | > 100 | > 100 | > 100 | > 100 |  |  | > 100 | > 100 | > 100 | > 100 |  |  |  |  |  | 
CCOC(=O)C1=C(C)NC2=C(C(=O)N(c3ccccc3)C2c2ccccc2)C1c1ccccc1 (configuration not stated) |  | 33.4 | 33.7 | 33.1 | 35.8 | 58 | 45.2 | 33.7 | 26.6 | 31.7 | 28.6 | 33.7 | 25.9 | 31.4 |  |  |  |  |  | 
CC(=O)OCC1OC(OC2C(COC(C)=O)OC(Sc3ccccc3C)C(OC(C)=O)C2OC(C)=O)C(OC(C)=O)C(OC(C)=O)C1OC(C)=O (configuration not stated) | > 100 | > 100 | > 100 | > 100 | > 100 |  | > 100 | > 100 | > 100 | > 100 | > 100 | > 100 | > 100 | > 100 |  |  |  |  |  | 
C=CCC1(Sc2ccccn2)Sc2ccc3ccccc3c2-c2c(ccc3ccccc23)S1 | > 100 | > 100 | > 100 | > 100 | > 100 | > 100 | > 100 | > 100 | > 100 | > 100 | > 100 | > 100 | > 100 | > 100 | > 100 | > 100 | > 100 | > 100 | > 100 | 
CN(C)Cc1cc(C(=O)/C=C/c2ccc(Cl)c(Cl)c2)cc(CN(C)C)c1O | 15.4 | 6.45 | 13.2 | 8.93 | 3.09 | 11.7 |  | 4.73 |  | 12.5 | 3.37 | 10.4 | 3.31 | 12.1 | 14.3 | 5.32 | 13.2 | 7.85 | 12.3 | 
